From US20070141714A1, “Method to detect small molecules binding to proteins using surface enhanced Raman scattering (SERS)” (Intel Corporation, priority 2005, published 2007)

Tests used:
protein kinase A (PKA) = protein kinase A (PKA) (Homo sapiens, UniProt P17612); assay: SERS detection of small molecule binding to protein after size exclusion spin column; conditions: 2.5 μM H-89, 0.2 mg/mL protein, PKA reaction buffer, 30 minutes at room temperature; flow through, difference of SERS spectra at 70° C. and room temperature
Description: In FIG. 2 small molecules and proteins are mixed in a purification column such as a size exclusion spin column and are allowed to incubate for a period of time. The incubation times depends on the binding affinity between the small molecule and the protein. Typically an incubation time of 10-30 minutes at room temperature is sufficient. The solvent used in the purification column is preferably chosen to optimize binding between the small molecules and the proteins. For example, PKA reaction buffer (50 mM Tris-HCl, 10 mM MgCl2) is preferably used for optimal binding between PKA and H-89.
For example, molecules with molecular weights below a certain cut-off value are retained in the size-exclusion type purification columns while protein molecules are collected in the flow through. Any small molecules that bind to the protein can also be carried through the column with the protein and recovered in the flow through. Raman spectroscopy using SERS active particles can be used to detect the small molecules in the flow through.
In FIG. 2-2 the small molecules are first released from the proteins in the flow through by, for example, heating the flow through. Raman spectroscopy is then again used to detect the presence of the small molecules in the flow through.
H-89 is a known small molecule inhibitor to protein kinase A (PKA). […]

Histone = assay: SERS detection of small molecule binding to protein after size exclusion spin column (negative control protein); conditions: 2.5 μM H-89, 0.2 mg/mL protein, same procedure
Description: (§1) PIERCE ZEBA-ZEBA desalt spin columns (cat #89882) were washed 10 times with methanol and 10 times with purified water. H-89 was then mixed with PKA or control proteins in a PKA reaction buffer (50 mM Tris-HCl, 10 mM MgCl2), making a final H-89 concentration of 2.5 μM and protein concentration of 0.2 mg/mL. This mixture was incubated at room temperature for 30 minutes, added to a desalting size exclusion spin column, and spun at 1500 g for 2 minutes to remove free H-89.
(§2) The silver colloids are aggregated by 0.5M of Lithium Chloride prior to addition of the sample. Ten spectra are collected from the mixture of sample and aggregated silver colloids. The remaining flow through is heated at 70° C. for 10 minutes, and another SERS measurement is performed. The line labeled PKA is the arithmetic difference in the SERS spectrums at 70° C. and room temperature (intensity on the primary y-axis). The main characteristic peaks of H-89 are visible and marked by black arrows.
(§3) The same procedure described above is repeated with other proteins including bovine serum albumin (labeled BSA), immunoglobulin G (labeled IgG), and Histone (labeled as Histone) as negative controls. The SERS spectrum corresponding to H-89 is not seen in any of these controls.

[1] = target: bovine serum albumin (BSA) (Bos taurus, UniProt P02769); assay: as above; conditions: 2.5 μM H-89, 0.2 mg/mL protein, same procedure
Description: as §1, §2, §3

immunoglobulin G (IgG) = assay: as above; conditions: 2.5 μM H-89, 0.2 mg/mL protein, same procedure
Description: as §1, §2, §3

Sequence of bovine serum albumin (BSA) (P02769 25-607): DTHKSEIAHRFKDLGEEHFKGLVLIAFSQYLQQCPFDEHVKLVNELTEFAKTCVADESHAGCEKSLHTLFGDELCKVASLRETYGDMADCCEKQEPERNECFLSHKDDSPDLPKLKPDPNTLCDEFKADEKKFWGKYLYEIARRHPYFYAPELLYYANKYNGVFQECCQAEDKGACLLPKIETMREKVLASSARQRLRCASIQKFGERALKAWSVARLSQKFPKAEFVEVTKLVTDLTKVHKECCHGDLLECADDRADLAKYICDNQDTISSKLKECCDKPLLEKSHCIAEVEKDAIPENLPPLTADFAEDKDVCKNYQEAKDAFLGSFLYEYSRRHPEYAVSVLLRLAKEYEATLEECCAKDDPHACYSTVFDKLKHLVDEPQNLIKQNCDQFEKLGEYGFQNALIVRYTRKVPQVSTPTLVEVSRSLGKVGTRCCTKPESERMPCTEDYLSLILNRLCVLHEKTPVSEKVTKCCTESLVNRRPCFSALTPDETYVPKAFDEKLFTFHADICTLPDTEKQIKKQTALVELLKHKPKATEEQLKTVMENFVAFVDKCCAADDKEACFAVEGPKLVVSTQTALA

binding to PKA (characteristic H-89 peaks in SERS difference spectrum) (protein kinase A (PKA)): there was binding of H-89 to PKA
Structure (SMILES): O=S(=O)(NCCNC/C=C/c1ccc(Br)cc1)c1cccc2cnccc12 [H-89]
specific binding to Histone (SERS spectrum corresponding to H-89) (Histone): specific binding of H-89 to the control proteins did not occur
specific binding to BSA (SERS spectrum corresponding to H-89) [1]: specific binding of H-89 to the control proteins did not occur
specific binding to IgG (SERS spectrum corresponding to H-89) (immunoglobulin G (IgG)): specific binding of H-89 to the control proteins did not occur
